Test results taken from patent US12268694B2, “Combination pharmaceutical agents as RSV inhibitors” (Enanta Pharmaceuticals, Inc., priority 2017, dated 2025).
Like-named read-outs stand apart in the source and are kept apart here.

Columns and labels:
[1] = tested on: genotype A, "Long" strain RSV; assay: RSV-A assay: CPE protection in HEp-2 cells, ATPlite readout; assay type: cell-based, human respiratory syncytial virus
How it was run: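 HEp-2 cells (8,000/well) with 2-fold compound dilutions in duplicate, infected with Long-strain RSV at MOI 0.1 and incubated 5 days. Cell ATP measured by ATPlite luminescence to give EC50; uninfected parallel plate gives CC50.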

[2] = tested on: RSV genotype B, strain 9320; assay: RSV-B assay: A549 cells infected with RSV-B, qPCR or ATPlite readout; assay type: cell-based; details: read-out: Human RSV-B EC50
Description: HEp-2 cells, (originally derived from tumors grown in irradiated-cortisonised weanling rats that had been injected with epidermoid carcinoma tissue from a person's larynx, but later found to be indistinguishable from HeLa cells by PCR DNA analysis), were used for the culturing of genotype B, strain 9320. Flasks were inoculated with RSV-B and viral stocks were collected once cytopathic effect (CPE) was greater than […]. Viral stocks in 25% sucrose media were snap frozen using liquid nitrogen to increase viral stability. Viral stock titers were quantified by tissue culture infectious dose 50% (TCID50) using 8,000 cells per well and 5-fold viral dilutions across a 96-well plate, cultured for 4 days. Viral stock titers were also quantified by a plaque forming unit assay, as described elsewhere.
The assay is run as follows: A549 cells (originally derived through explant culture from a person's carcinomatous lung tissue) are seeded into the inner 60 wells of a 96-well plate at 3,000 cells per well in a volume of 50 μL using A549 growth media (F-12K Media, 1% Penn/Strep, 1% nonessential amino acids, 10% heat-inactivated FBS). 2-fold serial dilutions of control and test compounds are added to the wells in duplicate in a total volume of 25 μL. Viral stock is then added to the wells at a multiplicity of infection (MOI) of 0.5 in a volume of 25 μL, bringing the total volume of each well to 100 μL. The MOI is calculated using the PFU/mL, or TCID50 if unavailable. Each 96-well plate has a control column of 6 wells with cells and virus but no compound (negative control, max CPE), a column with cells but no compound or virus (positive control, minimum CPE), and a column with no cells or virus or compound (background plate/reagent control). The control wells with cells but no virus are given an additional 25 μL of growth media containing an equal quantity of sucrose as those wells receiving the viral stock in order to keep consistent in media and volume conditions. The outer wells of the plate are filled with 125 μL of moat media (DMEM, 1% Penn/Strep) to act as a thermal and evaporative moat around the test wells. 6 days post infection, the plates are read using qPCR or ATP lite (50 μL added per well), which quantifies the amount of ATP (a measure of cell health) present in each well. Assay plates treated with APTlite are read using the Envision luminometer. […] EC50 ranges are as follows: A <0.4 μM; B 0.4-0.8 μM; C >0.8 μM.

[3] = human respiratory syncytial virus, HEp-2, read-out: Human RSV-A (“Long” strain) EC50
[4] = human respiratory syncytial virus, A549, 144 h

SMILES | EC50 ([1]; HEp-2 cells, RSV-A Long strain, ATPlite readout, read-out: Human RSV-A (“Long” strain) EC50) | EC50 ([2]; A549 cells, strain 9320, MOI 0.5, 6 days post infection) | EC50 [1, 3] | EC50 [2, 4]
O=C1Nc2c(F)cccc2C(c2ccccc2)=N[C@@H]1Nc1nnc(-c2cccnc2N2CCOCC2)o1 (single isomer, unassigned) [Example 358] | < 400 nM | < 400 nM |  | 
O=C1Nc2ccccc2C(c2ccccc2)=NC1Nc1ccc(-c2ccccc2)nn1 (stereo not drawn) [Example 95] |  |  | 400 to 800 nM | > 800 nM
CN(C)c1ccc(-c2nnc(NC3N=C(c4ccccc4)c4ccccc4NC3=O)o2)nc1 (stereo not drawn) [Example 108] |  |  | > 800 nM | > 800 nM
O=C1Nc2ccccc2C(c2ccccc2)=NC1Nc1nnc(-c2cccnc2N2CCOCC2)o1 (stereo not drawn) [Example 120] |  |  | < 400 nM | 400 to 800 nM
O=C1Nc2ccccc2C(c2ccccc2)=NC1Nc1nnc(-c2ccc(C(F)(F)F)cc2N2CCOCC2)o1 (stereo not drawn) [Example 123] |  |  | < 400 nM | 400 to 800 nM
O=C1Nc2ccccc2C(c2ccccc2)=NC1Nc1nnc(-c2ccc(N3CCOCC3)cc2)o1 (stereo not drawn) [Example 124] |  |  |  | < 400 nM
O=C1Nc2ccccc2C(c2ccccc2)=NC1Nc1nnc(-c2ccccc2N2CCOCC2)o1 (stereo not drawn) [Example 125] |  |  |  | 400 to 800 nM
O=C1Nc2ccccc2C(c2ccccc2)=NC1Nc1nnc(-c2ccc(F)cc2N2CCOCC2)o1 (stereo not drawn) [Example 127] |  |  | < 400 nM | < 400 nM
O=C1Nc2ccccc2C(c2ccccc2)=NC1Nc1nnc(-c2ccc(-n3cccn3)cc2N2CCOCC2)o1 (stereo not drawn) [Example 129] |  |  | < 400 nM | < 400 nM
N#Cc1ccc(-c2nnc(NC3N=C(c4ccccc4)c4ccccc4NC3=O)o2)c(N2CCOCC2)c1 (stereo not drawn) [Example 131] |  |  | < 400 nM | < 400 nM
O=C1Nc2ccccc2C(c2ccccc2)=N[C@@H]1Nc1nnc(-c2ncc(F)cc2N2CCOCC2)o1 [Example 136, (S)-3-((5-(5-fluoro-3-morpholinopyridin-2-yl)-1,3,4-oxadiazol-2-yl)amino)-5-phenyl-1,3-dihydro-2H-benzo[e][1,4]diazepin-2-one] |  |  | < 400 nM | < 400 nM
Cc1ccc(-c2nnc(NC3N=C(c4ccccc4)c4ccccc4NC3=O)o2)c(N2CCOCC2)n1 (stereo not drawn) [Example 144] |  |  | < 400 nM | < 400 nM
N#Cc1ccc(-c2nnc(N[C@H]3N=C(c4ccccc4)c4ccccc4NC3=O)o2)c(N2CCOCC2)n1 [Example 153] |  |  | < 400 nM | < 400 nM
Cn1c(N2CCOCC2)c(-c2nnc(N[C@H]3N=C(c4ccccc4)c4ccccc4NC3=O)o2)ccc1=O [Example 155] |  |  | < 400 nM | < 400 nM
Cc1nc(N2CCOCC2)c(-c2nnc(N[C@H]3N=C(c4ccccc4)c4ccccc4NC3=O)o2)cc1C#N [Example 158] |  |  | < 400 nM | < 400 nM
N#Cc1cnc(-c2nnc(N[C@H]3N=C(c4ccccc4)c4ccccc4NC3=O)o2)c(N2CCOCC2)c1 [Example 160] |  |  |  | < 400 nM
O=C1Nc2ccccc2C(c2ccccc2)=N[C@@H]1Nc1nnc(-c2ncc(Br)cc2N2CCOCC2)o1 [Example 168] |  |  | < 400 nM | < 400 nM
O=C1Nc2ccccc2C(c2ccccc2)=N[C@@H]1Nc1nnc(-c2ncc(C3CC3)cc2N2CCOCC2)o1 [Example 169] |  |  | < 400 nM | < 400 nM
N#Cc1cc(-c2nnc(N[C@H]3N=C(c4ccccc4)c4ccccc4NC3=O)o2)c(N2CCOCC2)nc1C1CC1 [Example 175] |  |  | < 400 nM | 400 to 800 nM
O=C1Nc2ccccc2C(c2ccccc2)=N[C@@H]1Nc1nnc(-c2oc3ccccc3c2N2CCOCC2)o1 [Example 179] |  |  | < 400 nM | < 400 nM
CN1CCN(c2ccccc2-c2nnc(NC3N=C(c4ccccc4)c4ccccc4NC3=O)o2)CC1 (stereo not drawn) [Example 224] |  |  | > 800 nM | < 400 nM
O=C1Nc2ccccc2C(c2ccccc2)=N[C@@H]1Nc1nnc(-c2cccnc2N2CCOCC2)o1 [Example 242] |  |  | < 400 nM | < 400 nM
C[C@@H]1COCCN1c1ncccc1-c1nnc(NC2N=C(c3ccccc3)c3ccccc3NC2=O)o1 (stereo partly drawn) [Example 245] |  |  | < 400 nM | 400 to 800 nM
O=C1Nc2ccccc2C(c2ccccc2)=N[C@@H]1Nc1nnc(-c2ncc(C(F)(F)F)cc2N2C3CCC2COC3)o1 [Example 250] |  |  | < 400 nM | < 400 nM

SMILES | EC50 ([1]; HEp-2 cells, RSV-A Long strain, ATPlite readout, read-out: Human RSV-A (“Long” strain) EC50) | EC50 ([2]; A549 cells, strain 9320, MOI 0.5, 6 days post infection) | EC50 [1, 3] | EC50 [2, 4]
O=C1Nc2ccccc2C(c2ccccc2)=N[C@@H]1Nc1nnc(-c2ncc(C(F)(F)F)cc2N2CC3CCC(C2)O3)o1 [Example 251] |  |  | < 400 nM | < 400 nM
Cc1ccc(-c2nnc(N[C@H]3N=C(c4ccccc4)c4ccccc4NC3=O)o2)c(N2CCOCC2)n1 [Example 252] |  |  | < 400 nM | < 400 nM
C[C@H]1CN(c2ncccc2-c2nnc(NC3N=C(c4ccccc4)c4ccccc4NC3=O)o2)CCO1 (stereo partly drawn) [Example 263] |  |  | 400 to 800 nM | 400 to 800 nM
COC1CCN(c2cc(C(F)(F)F)cnc2-c2nnc(N[C@H]3N=C(c4ccccc4)c4ccccc4NC3=O)o2)CC1 [Example 268] |  |  | > 800 nM | 400 to 800 nM
O=C1Nc2ccccc2C(c2ccccc2)=N[C@@H]1Nc1nnc(-c2ncc(C(F)(F)F)cc2N2CCC(F)CC2)o1 [Example 269] |  |  | > 800 nM | 400 to 800 nM
Cc1nc(-c2nnc(N[C@H]3N=C(c4ccccc4)c4ccccc4NC3=O)o2)c(N2CCOCC2)s1 [Example 272] |  |  | < 400 nM | < 400 nM
O=C1Nc2ccccc2C(c2ccccc2)=N[C@@H]1Nc1nnc(-c2ccc(C(F)(F)F)nc2N2CC3CCC(C2)O3)o1 [Example 276] |  |  | 400 to 800 nM | > 800 nM
C[C@@H]1CN(c2cc(C(F)(F)F)cnc2-c2nnc(N[C@H]3N=C(c4ccccc4)c4ccccc4NC3=O)o2)CCO1 [Example 277] |  |  | < 400 nM | < 400 nM
C[C@H]1CN(c2cc(C(F)(F)F)cnc2-c2nnc(N[C@H]3N=C(c4ccccc4)c4ccccc4NC3=O)o2)CCO1 [Example 278] |  |  | < 400 nM | < 400 nM
COCCOc1cc(C#N)ccc1-c1nnc(N[C@H]2N=C(c3ccccc3)c3ccccc3NC2=O)o1 [Example 300] |  |  | < 400 nM | < 400 nM
N#CCCNc1cc(C(F)(F)F)cnc1-c1nnc(N[C@H]2N=C(c3ccccc3)c3ccccc3NC2=O)o1 [Example 303] |  |  | < 400 nM | < 400 nM
N#Cc1cnc(-c2nnc(N[C@H]3N=C(c4ccccc4)c4ccccc4NC3=O)o2)c(N2CC3CCC(C2)O3)c1 [Example 304] |  |  | < 400 nM | < 400 nM
O=C1Nc2ccccc2C(c2ccccc2)=N[C@@H]1Nc1nnc(-c2nc3ccccc3cc2N2CCOCC2)o1 [Example 322] |  |  | < 400 nM | < 400 nM
O=C1Nc2ccccc2C(c2ccccc2)=N[C@@H]1Nc1nnc(-c2ncsc2N2CCOCC2)o1 [Example 336] |  |  | < 400 nM | < 400 nM
O=C1Nc2ccccc2C(c2ccccc2)=N[C@@H]1Nc1nnc(-c2nc(C3CC3)sc2N2CCOCC2)o1 [Example 338] |  |  | < 400 nM | < 400 nM
O=C1Nc2ccccc2C(c2ccccc2)=N[C@@H]1Nc1nnc(-c2nc(C(F)(F)F)sc2N2CCOCC2)o1 [Example 339] |  |  | < 400 nM | < 400 nM
O=C1Nc2ccccc2C(c2ccccc2)=N[C@@H]1Nc1nnc(-c2nc(-c3ccccc3)sc2N2CCOCC2)o1 [Example 340] |  |  | < 400 nM | < 400 nM
O=C1Nc2ccccc2C(c2ccccc2)=N[C@@H]1Nc1nnc(-c2nc(-c3ccccn3)sc2N2CCOCC2)o1 [Example 341] |  |  | < 400 nM | < 400 nM
O=C1Nc2ccccc2C(c2ccccc2)=N[C@@H]1Nc1nnc(-c2csc(N3CCOCC3)n2)o1 [Example 351] |  |  | 400 to 800 nM | 400 to 800 nM
O=C1Nc2c(F)cccc2C(c2ccccc2)=N[C@@H]1Nc1nnc(-c2ccccc2N2CCOCC2)o1 [Example 355a] |  |  | < 400 nM | < 400 nM
O=C1Nc2ccccc2C(c2ccccc2)=NC1Nc1nnc(-c2ccc(-n3cccn3)cc2)[nH]1 (stereo not drawn) [Example 364] |  |  | < 400 nM | 400 to 800 nM
N#Cc1ccc(-c2ccc(NC3N=C(c4ccccc4)c4ccccc4NC3=O)nn2)cc1 (stereo not drawn) [Example 377] |  |  | < 400 nM | < 400 nM
CCc1nc(-c2nnc(N[C@H]3N=C(c4ccccc4)c4ccccc4NC3=O)o2)c(N2CCOCC2)s1 [Example 385] |  |  | < 400 nM | < 400 nM
O=C1Nc2ccccc2C(c2ccccc2)=N[C@@H]1Nc1nnc(-c2nc(C3CCC3)sc2N2CCOCC2)o1 [Example 387] |  |  | < 400 nM | < 400 nM
